Assay results from article PMC12624432, “Development of Novel ^18F‑Labeled Selective Orexin‑2 Receptor Radioligands for Positron Emission Tomography” (ACS Pharmacology & Translational Science, 2025).
“Also recorded” adds a separate entry of the source.

Experiments:
OX2R [1] = experiment: OX2R binding affinity; conditions: for selectivity over OX1R: OX2R over OX1R; for selectivity (OX2R/OX1R): ratio of Ki OX1 to Ki OX2
Experimental log D = format: physicochemical
Source text: 1 Representative Pharmacological and Physicochemical Properties of 1 and 2 | column: compound 1; compound 2

sigma-2 = sigma-2 (Homo sapiens, UniProt Q5BJF2); experiment: Off-target binding, sigma-2; conditions: read-out: K i sigma-2
Chain of sigma-2 (Q5BJF2 whole entry): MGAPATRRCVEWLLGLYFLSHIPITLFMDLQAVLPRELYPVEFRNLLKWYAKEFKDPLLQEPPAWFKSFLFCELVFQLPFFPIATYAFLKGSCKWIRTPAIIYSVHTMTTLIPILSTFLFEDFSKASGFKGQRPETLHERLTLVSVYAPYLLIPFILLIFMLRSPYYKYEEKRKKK
Description: (§1) Target selectivity over OX1R exceeded 600-fold for both compounds, satisfying a key prerequisite for selective OX2R imaging. […] CNS penetration was further predicted using Percepta, yielding log BB values of −0.14 and −0.36 for compounds 1 and 2, respectively, well above the empirical threshold for BBB permeability (log BB > −1). Additionally, off-target binding screening was conducted for compounds 1 and 2 toward 59 major CNS targets (Figures S1 and S2).
(§2) 1. Supporting Figures and Tables
(§3) Figure S1. Off-target pharmacological evaluation of compound 1. Initial screening of 59 major CNS targets at a concentration of 1 at 10 μM, including common GPCRs, enzymes, ion channels, and transporters. All data are mean ± SD (n ≥ 3).
(§4) Figure S2. Off-target pharmacological evaluation of compound 2. Initial screening of 59 major CNS targets at a concentration of 2 at 10 μM, including common GPCRs, enzymes, […]

[2] = test system: 59 major CNS targets (GPCRs, enzymes, ion channels, transporters); experiment: Off-target binding screening of 59 major CNS targets; conditions: 10 μM; significant = > 50%; except sigma 2 (and NR2B for 1)
Description: as §1, §2, §3, §4

OX2R [3] = molecular target: OX2R; parameters: method as in earlier work; conditions: no binding method in paper; compounds previously reported; read-out: K i/OX2; cited from earlier work
OX1R = molecular target: OX1R; parameters: method as in earlier work; conditions: no binding method in paper; compounds previously reported; read-out: K i/OX1; cited from earlier work
OX2R [4] = test system: OX2R; parameters: method as in not given; conditions: introduction, literature statement; ref not given; cited from earlier work
[5] = In vitro tracer stability in saline; format: physicochemical; conditions: over the studied time intervals
Description: (§5) [^18F]1 and [^18F]2 were obtained in 24% and 53% decay-corrected radiochemical yields (RCYs) with molar activities of 53 GBq/μmol and 38 GBq/μmol, respectively. […] Furthermore, in vitro stability tests of [^18F]1 and [^18F]2 were conducted in saline, serums, and liver microsomes across species.

[6] = In vitro tracer stability in serum; format: in vitro ADME; conditions: mouse, rat, nonhuman primate and human serum
Description: as §5

[7] = In vitro tracer stability in liver microsomes; format: in vitro ADME; conditions: mouse, rat and human liver microsomes
Description: as §5
Figure S3. Stability of [ 18F]1 in liver microsomes. (A) Stability of [ 18F]1 in mouse liver microsome; (B) Stability of [18F]1 in rat liver microsome; (C) Stability of [ 18F]1 in human […]
Figure S4. Stability of [ 18F]2 in liver microsomes. (A) Stability of [ 18F]2 in mouse liver microsome; (B) Stability of [18F]2 in rat liver microsome; (C) Stability of [ 18F]2 in human […]
Figure S5. TACs of [ 18F]1 in the whole rat brain under baseline and blocking (elacridar, elacridar and EMPA, or elacridar and LSN2424100; elacridar in 5 mg/kg, EMPA and LSN2424100 in 1 mg/kg) conditions; All data are mean ± SD, n ≥ 3. […]

[8] = Radiometabolic analysis in plasma and brain; format: in vivo, SD rats; conditions: rat brain homogenate, 30 min postinjection
Description: According to a previous report, SD rats were euthanized 30 min after the administration of [^18F]1 or [^18F]2. The brain was collected, homogenized with cold MeCN and PBS, and centrifuged (14,000g, 5 min) at 4 °C. The supernatant was analyzed by HPLC, and both tracers and radiometabolites were collected and measured by a γ counter. The same procedure was conducted for plasma.

OX2R [9] = molecular target: T1, OX2R (Rattus norvegicus, UniProt P56719); experiment: In vitro autoradiography on rat brain sections; format: binding; parameters: from tissue; host or cells: rat brain sections; conditions: blocking with EMPA, LSN2424100 or authentic reference compound, 10 μM, across regions
T1 sequence (P56719 1-460): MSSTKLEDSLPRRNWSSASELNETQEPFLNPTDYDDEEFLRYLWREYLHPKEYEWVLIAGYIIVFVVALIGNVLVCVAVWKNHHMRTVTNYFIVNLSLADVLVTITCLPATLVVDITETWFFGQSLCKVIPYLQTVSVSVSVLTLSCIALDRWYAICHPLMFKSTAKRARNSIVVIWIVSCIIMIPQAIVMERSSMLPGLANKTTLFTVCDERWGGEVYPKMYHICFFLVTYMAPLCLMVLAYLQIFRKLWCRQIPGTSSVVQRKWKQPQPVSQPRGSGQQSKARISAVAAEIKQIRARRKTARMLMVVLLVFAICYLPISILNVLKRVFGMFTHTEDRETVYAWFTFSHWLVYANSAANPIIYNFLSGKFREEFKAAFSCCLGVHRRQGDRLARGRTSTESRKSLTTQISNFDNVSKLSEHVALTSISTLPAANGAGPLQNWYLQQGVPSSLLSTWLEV
Description: According to a previous report, rat brain sections were incubated with Tris-HCl buffer (50 mM) and then with [^18F]1 or [^18F]2. In the blocking study, brain sections were incubated with the tracer in the presence of 1, 2, EMPA, or LSN2424100 (10 μM). Then the brain sections were washed with the cold buffer, dried, exposed to an imaging screen, and scanned with a Typhoon biomolecular imager.

OX2R [10] = molecular target: T1, OX2R; experiment: Dynamic PET imaging in the rat brain; format: in vivo, Sprague–Dawley rats; parameters: from tissue; host or cells: brain of living Sprague-Dawley rats; conditions: for tracer uptake reduction under blocking: EMPA or LSN2424100 1 mg/kg after elacridar pretreatment, all brain regions; for peak SUV in brain: baseline, 0.5 min postinjection; for increase in SUV0–60 min with elacridar: co-administration of elacridar 5 mg/kg (P-gp/BCRP inhibitor), across brain regions
Description: PET imaging was performed according to previous reports , with minor modifications. [^18F]1 or [^18F]2 (40 μCi) was administered via the tail vein of SD rats, and dynamic scans were performed with a G8 PET scanner (Sofie) for 60 min. In the blocking study, elacridar (5 mg/kg) and OX2R antagonist (EMPA or LSN2424100, 1 mg/kg) were injected at 20 and 10 min before the administration of the tracer, respectively.

NR2B receptors = NR2B receptors (Homo sapiens, UniProt Q05586+Q13224); experiment: Off-target binding, NR2B; conditions: read-out: K i NR2B
Chain of NR2B receptors (Q13224 27-1484, other chains not shown): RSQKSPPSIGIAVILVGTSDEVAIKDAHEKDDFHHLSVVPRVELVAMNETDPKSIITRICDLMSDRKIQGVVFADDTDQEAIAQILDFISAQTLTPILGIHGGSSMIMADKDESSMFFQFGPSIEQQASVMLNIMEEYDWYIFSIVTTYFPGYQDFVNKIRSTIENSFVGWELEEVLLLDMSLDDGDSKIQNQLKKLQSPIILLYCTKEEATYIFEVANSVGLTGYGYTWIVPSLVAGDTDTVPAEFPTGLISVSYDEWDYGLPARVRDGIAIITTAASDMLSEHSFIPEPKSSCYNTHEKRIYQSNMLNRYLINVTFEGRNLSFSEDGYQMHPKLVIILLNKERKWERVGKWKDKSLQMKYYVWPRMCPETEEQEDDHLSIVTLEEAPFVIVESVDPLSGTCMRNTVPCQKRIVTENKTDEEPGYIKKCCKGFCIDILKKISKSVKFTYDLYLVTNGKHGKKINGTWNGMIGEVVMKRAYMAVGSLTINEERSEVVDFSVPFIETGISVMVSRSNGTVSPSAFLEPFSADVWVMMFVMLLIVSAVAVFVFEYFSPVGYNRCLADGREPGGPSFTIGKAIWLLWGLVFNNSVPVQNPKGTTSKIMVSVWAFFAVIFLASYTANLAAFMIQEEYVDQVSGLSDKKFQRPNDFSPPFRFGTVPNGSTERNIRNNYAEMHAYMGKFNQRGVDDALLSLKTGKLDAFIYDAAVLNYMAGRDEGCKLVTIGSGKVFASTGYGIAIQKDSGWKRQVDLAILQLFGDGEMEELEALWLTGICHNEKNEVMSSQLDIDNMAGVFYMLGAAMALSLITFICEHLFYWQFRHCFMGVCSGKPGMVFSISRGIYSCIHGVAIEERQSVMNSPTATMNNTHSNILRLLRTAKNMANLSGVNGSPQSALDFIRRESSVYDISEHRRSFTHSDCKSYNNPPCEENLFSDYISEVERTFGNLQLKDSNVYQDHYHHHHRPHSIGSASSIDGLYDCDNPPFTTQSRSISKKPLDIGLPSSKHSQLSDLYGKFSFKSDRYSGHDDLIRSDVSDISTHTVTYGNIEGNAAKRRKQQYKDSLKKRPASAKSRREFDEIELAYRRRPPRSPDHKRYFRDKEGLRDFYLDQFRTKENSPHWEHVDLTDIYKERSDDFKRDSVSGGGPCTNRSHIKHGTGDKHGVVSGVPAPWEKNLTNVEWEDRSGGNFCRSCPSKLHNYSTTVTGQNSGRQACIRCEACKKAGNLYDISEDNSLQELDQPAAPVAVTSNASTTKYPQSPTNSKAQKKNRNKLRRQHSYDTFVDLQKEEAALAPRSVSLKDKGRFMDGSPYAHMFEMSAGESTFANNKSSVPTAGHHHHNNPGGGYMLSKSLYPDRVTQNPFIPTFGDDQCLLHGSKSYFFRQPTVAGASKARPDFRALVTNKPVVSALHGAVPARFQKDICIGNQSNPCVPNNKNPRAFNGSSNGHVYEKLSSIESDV
Description: as §1, §2, §3, §4

| selectivity (OX2R/OX1R) (OX2R [1]) | logD (Experimental log D) | Ki (sigma-2) | Ki (NR2B receptors) | Compound | selectivity over OX1R (OX2R [1]) | off-target binding toward 59 major CNS targets [2] | Ki (OX2R [3]) | Ki (OX1R) | selectivity for OX2R (OX2R [4]) | radiometabolites in saline (stability) [5] | radiometabolites in serum (stability) [6] | radiometabolites in liver microsomes (stability) [7] | intact parent tracer in brain [8] | autoradiography signal reduction under blocking (OX2R [9]) | tracer uptake reduction under blocking (OX2R [10]) | peak SUV in brain (OX2R [10]) | increase in SUV0–60 min with elacridar (OX2R [10]) |
| --- | --- | --- | --- | --- | --- | --- | --- | --- | --- | --- | --- | --- | --- | --- | --- | --- | --- |
| 658 | 2.54 | 4.73 µM |  | C[C@@H]1CC[C@@H](Oc2cc(C#N)ccn2)CN1C(=O)c1cc(F)ccc1-c1ncccn1 [compound 2, 2-(((3R,6R)-1-(5-Fluoro-2-(pyrimidin-2-yl)benzoyl)-6-methylpiperidin-3-yl)oxy)isonicotinonitrile] | exceeded 600 fold | No off-target activity was observed; also recorded: No significant off-target | 0.001 µM | 0.658 µM |  |  |  |  |  |  |  |  |  |
|  |  |  |  | orexin B: endogenous neuropeptide ligand of the orexin receptors, selective for OX2R |  |  |  |  | > 10 fold |  |  |  |  |  |  |  |  |
|  |  |  |  | Cc1c(C#N)ccnc1O[C@@H]1CC[C@@H](C)N(C(=O)c2cc([18F])ccc2-c2nccs2)C1 [[^18F]1] | > 600 fold |  | 0.0001 µM |  |  | No appreciable radiometabolites were detected | No appreciable radiometabolites were detected | No appreciable radiometabolites were detected | ca. 90% | 54–84% | 40–43% | 2.1 | > 100% |
| 890 | 3.43 | 2.68 µM | 9.48 µM | Cc1c(C#N)ccnc1O[C@@H]1CC[C@@H](C)N(C(=O)c2cc(F)ccc2-c2nccs2)C1 [compound 1, 2-(((3R,6R)-1-(5-Fluoro-2-(thiazol-2-yl)benzoyl)-6-methylpiperidin-3-yl)oxy)-3-methylisonicotinonitrile] | exceeded 600 fold | No off-target activity was observed; also recorded: No significant off-target | 0.0001 µM | 0.089 µM |  |  |  |  |  |  |  |  |  |
|  |  |  |  | CC1CCC(Oc2cc(C#N)ccn2)CN1C(=O)c1cc([18F])ccc1-c1ncccn1 (stereo not drawn) [[^18F]2] | > 600 fold |  | 0.001 µM |  |  | No appreciable radiometabolites were detected | No appreciable radiometabolites were detected | No appreciable radiometabolites were detected | ca. 90% | 51–71% | 23–46% | 1.8 | > 100% |
